Measurements taken from DBAASP.
≈ marks a conversion by molar mass, not a printed value. One block for each compound: values may come before it.

Legend:
Assay in all cases: ≥ marks a high value that may be exact or a test limit, other limits are often not marked, values filed in µg/mL are converted to µM
[1] = test system: Escherichia coli BL21
[2] = test system: Pseudomonas aeruginosa PAO1
[3] = test system: Streptococcus pyogenes M1T1 5448
[4] = test system: Escherichia coli ATCC 25922
[5] = test system: Pseudomonas aeruginosa ATCC 27853
[6] = test system: Staphylococcus aureus ATCC 12600
[7] = test system: Streptococcus mutans ATCC 25175
[8] = test system: Bacillus subtilis DELTA
[9] = test system: Candida parapsilosis
[10] = test system: Escherichia coli DH5alpha
[11] = test system: Zymomonas mobilis ATCC 10988
[12] = test system: Enterococcus faecalis ATCC 29212
[13] = test system: Escherichia coli UB1005
[14] = test system: Salmonella enterica subsp. enterica serovar Choleraesuis CVCC 503
[15] = test system: Salmonella enterica subsp. enterica serovar Pullorum C79-13
[16] = test system: Salmonella enterica subsp. enterica serovar Typhimurium ATCC 14028
[17] = test system: Salmonella enterica subsp. enterica serovar Typhimurium C77-31
[18] = test system: Staphylococcus aureus ATCC 29213
[19] = test system: Staphylococcus aureus ATCC 43300
[20] = test system: Staphylococcus aureus
[21] = test system: Staphylococcus epidermidis ATCC 12228
[22] = test system: Streptococcus agalactiae
[23] = test system: Bacillus subtilis ATCC 6051
[24] = test system: Escherichia coli NEB5alpha
[25] = test system: Bacillus subtilis CMCC 63501
[26] = test system: Escherichia coli 078
[27] = test system: Escherichia coli K88
[28] = test system: Escherichia coli K99
[29] = test system: Staphylococcus aureus ATCC 25923

SMILES: CC[C@H](C)[C@H](NC(=O)[C@H](CCCCN)NC(=O)[C@H](CCCCN)NC(=O)[C@H](CCCCN)NC(=O)[C@H](CC(C)C)NC(=O)[C@H](CCCN=C(N)N)NC(=O)[C@H](CCC(N)=O)NC(=O)[C@H](Cc1ccccc1)NC(=O)[C@@H](NC(=O)[C@@H](NC(=O)[C@H](CCC(=O)O)NC(=O)[C@H](CCCCN)NC(=O)CNC(=O)[C@H](C)N)[C@@H](C)O)[C@@H](C)CC)C(=O)N[C@@H](CCC(N)=O)C(=O)N[C@@H](CCC(=O)O)C(=O)N[C@@H](CCCCN)C(=O)NCC(=O)N[C@@H](CCCCN)C(=O)N[C@@H](CCCN=C(N)N)C(=O)N[C@@H](C)C(=O)N[C@H](C(=O)N[C@H](C(=O)N[C@@H](Cc1c[nH]c2ccccc12)C(=O)N[C@@H](Cc1c[nH]c2ccccc12)C(=O)O)[C@@H](C)CC)[C@@H](C)O [AGKETIFQRLKKKIQEKGKRATIWW]
MIC [1]: 4 µM (≈ 12.2 µg/mL)
MIC [2]: 16 µM (≈ 48.7 µg/mL)
MIC [3]: 0.25 µM (≈ 0.761 µg/mL)

SMILES: CC[C@H](C)[C@H](NC(=O)[C@H](Cc1ccccc1)NC(=O)[C@H](C)NC(=O)[C@H](CCCCN)NC(=O)[C@H](CCCCN)NC(=O)[C@H](Cc1c[nH]c2ccccc12)NC(=O)[C@H](CCCN=C(N)N)NC(=O)[C@H](CCCCN)NC(=O)[C@H](CCCN=C(N)N)NC(=O)[C@H](CC(C)C)NC(=O)[C@H](CCC(=O)O)NC(=O)[C@H](CCC(=O)O)NC(=O)[C@H](CC(C)C)NC(=O)[C@H](CC(C)C)NC(=O)[C@H](Cc1ccc(O)cc1)NC(=O)[C@H](CCCCN)NC(=O)[C@@H](NC(=O)[C@H](CC(C)C)NC(=O)[C@H](C)NC(=O)[C@H](CCC(N)=O)NC(=O)[C@H](CCCN=C(N)N)NC(=O)CNC(=O)[C@H](C)N)[C@@H](C)O)C(=O)N[C@@H](C)C(=O)N[C@@H](Cc1c[nH]c2ccccc12)C(=O)O [AGRQALTKYLLEELRKRWKKAFIAW]
MIC [1]: 1 µM (≈ 3.08 µg/mL)
MIC [2]: 64 µM (≈ 197 µg/mL)
MIC [3]: 2 µM (≈ 6.15 µg/mL)

SMILES: CC[C@H](C)[C@H](NC(=O)[C@H](C)NC(=O)CNC(=O)[C@H](Cc1ccccc1)NC(=O)[C@H](CC(C)C)NC(=O)CN)C(=O)N[C@@H](C)C(=O)NCC(=O)N[C@@H](Cc1ccccc1)C(=O)N[C@H](C(=O)N[C@@H](CCCCN)C(=O)NCC(=O)NCC(=O)N[C@@H](Cc1c[nH]c2ccccc12)C(=O)N1CCC[C@H]1C(=O)NCC(=O)N[C@@H](CC(C)C)C(=O)N[C@H](C(=O)N[C@@H](CCCCN)C(=O)NCC(N)=O)C(C)C)[C@@H](C)CC [GLFGAIAGFIKGGWPGLVKG]
MIC [4]: 16 µM (≈ 31.1 µg/mL)
MIC [5]: > 64.3 µM
MIC [6]: 16 µM (≈ 31.1 µg/mL)
MIC [7]: 11.3 µM (≈ 22 µg/mL)

SMILES: CC[C@H](C)[C@H](N)C(=O)N[C@H](C(=O)N[C@@H](CS)C(=O)N[C@@H](CCCN=C(N)N)C(=O)N[C@@H](CCCCN)C(=O)N1CCC[C@H]1C(=O)N[C@H](C(=O)N[C@H](C(=O)N[C@@H](CS)C(=O)N[C@@H](CCCN=C(N)N)C(=O)N[C@@H](CCCCN)C(=O)N1CCC[C@H]1C(=O)N[C@H](C(=O)N[C@H](C(N)=O)[C@@H](C)CC)[C@@H](C)CC)[C@@H](C)CC)[C@@H](C)CC)[C@@H](C)CC [IICRKPIICRKPII]
MIC [12]: > 64 µM
MIC [4]: 16 µM (≈ 26.6 µg/mL)
MIC [13]: 16 µM (≈ 26.6 µg/mL)
MIC [14]: ≥ 64 µM
MIC [15]: ≥ 64 µM
MIC [16]: 32 µM (≈ 53.3 µg/mL)
MIC [17]: ≥ 32 µM
MIC [18]: > 64 µM
MIC [19]: > 64 µM
MIC [20]: > 64 µM
MIC [21]: > 64 µM
MIC [22]: ≥ 64 µM

SMILES: CC[C@H](C)[C@H](NC(=O)[C@H](C)NC(=O)CNC(=O)[C@H](CCCCN)NC(=O)[C@H](CCC(=O)O)NC(=O)[C@H](CCC(=O)O)NC(=O)[C@H](CC(=O)O)NC(=O)[C@H](CCC(=O)O)NC(=O)[C@H](CC(N)=O)NC(=O)[C@H](CCCN=C(N)N)NC(=O)CNC(=O)[C@H](CCC(N)=O)NC(=O)[C@H](CC(C)C)NC(=O)[C@@H](N)CCCCN)C(=O)N[C@H](C(=O)N[C@@H](CCCCN)C(=O)N[C@H](C(=O)N[C@@H](CCCCN)C(=O)O)C(C)C)C(C)C [KLQGRNEDEEKGAIVKVK]
MIC [23]: ≥ 1000 µM
MIC [24]: ≥ 1000 µM

SMILES: CC[C@H](C)[C@H](NC(=O)[C@H](C)NC(=O)[C@H](C)NC(=O)[C@H](CCCN=C(N)N)NC(=O)[C@H](CC(=O)O)NC(=O)[C@H](CC(N)=O)NC(=O)[C@@H](NC(=O)[C@@H](N)CCCCN)[C@@H](C)O)C(=O)NCC(=O)N[C@@H](CCCCN)C(=O)N[C@@H](CC(C)C)C(=O)N[C@H](C(=O)NCC(=O)N[C@@H](C)C(=O)N[C@H](C(=O)N[C@@H](CO)C(=O)N[C@@H](CO)C(=O)N[C@@H](CC(C)C)C(=O)O)[C@@H](C)O)C(C)C [KTNDRAAIGKLVGATSSL]
MIC [24]: ≥ 1000 µM

SMILES: CC(C)[C@H](N)C(=O)N[C@@H](CS)C(=O)N[C@@H](CCCN=C(N)N)C(=O)N[C@@H](CCCCN)C(=O)N1CCC[C@H]1C(=O)N[C@H](C(=O)N[C@H](C(=O)N[C@@H](CS)C(=O)N[C@@H](CCCN=C(N)N)C(=O)N[C@@H](CCCCN)C(=O)N1CCC[C@H]1C(=O)N[C@H](C(N)=O)C(C)C)C(C)C)C(C)C [VCRKPVVCRKPV]
MIC [12]: > 64 µM
MIC [4]: > 64 µM
MIC [13]: ≥ 64 µM
MIC [14]: ≥ 64 µM
MIC [15]: ≥ 64 µM
MIC [16]: > 64 µM
MIC [17]: ≥ 64 µM
MIC [18]: > 64 µM
MIC [19]: > 64 µM
MIC [20]: > 64 µM
MIC [21]: > 64 µM
MIC [22]: ≥ 64 µM

Continued, values first:

MIC [8]: ≥ 167 µM
MIC [9]: 8.33 µM (≈ 9.99 µg/mL)
MIC [10]: ≥ 167 µM
MIC [2]: 2.5 µM (≈ 3 µg/mL)
MIC [11]: 4.16 µM (≈ 5 µg/mL)
SMILES: CC[C@H](C)[C@H](NC(=O)[C@H](Cc1ccccc1)NC(=O)[C@H](CCCCN)NC(=O)[C@H](CC(C)C)NC(=O)[C@H](CC(C)C)NC(=O)CN)C(=O)N[C@@H](CCCCN)C(=O)N[C@@H](CCCN=C(N)N)C(=O)N[C@@H](CC(C)C)C(=O)N[C@@H](CC(C)C)C(N)=O [GLLKFIKRLL]

MIC [8]: 8.57 µM (≈ 9.99 µg/mL)
MIC [9]: 12.9 µM (≈ 15 µg/mL)
MIC [10]: ≥ 171 µM
MIC [2]: 2.57 µM (≈ 3 µg/mL)
MIC [11]: 4.29 µM (≈ 5 µg/mL)
SMILES: CC[C@H](C)[C@H](NC(=O)[C@H](CCCCN)NC(=O)[C@H](CC(C)C)NC(=O)[C@H](CC(C)C)NC(=O)CN)C(=O)N[C@H](C(=O)N[C@@H](CCCCN)C(=O)N[C@@H](CCCN=C(N)N)C(=O)N[C@@H](CC(C)C)C(=O)N[C@@H](CC(C)C)C(N)=O)[C@@H](C)CC [GLLKIIKRLL]

MIC [25]: 2 µM (≈ 3.19 µg/mL)
MIC [12]: 4 µM (≈ 6.39 µg/mL)
MIC [26]: 4 µM (≈ 6.39 µg/mL)
MIC [4]: 16 µM (≈ 25.6 µg/mL)
MIC [27]: 2 µM (≈ 3.19 µg/mL)
MIC [28]: 4 µM (≈ 6.39 µg/mL)
MIC [13]: 16 µM (≈ 25.6 µg/mL)
MIC [15]: 2 µM (≈ 3.19 µg/mL)
MIC [16]: 8 µM (≈ 12.8 µg/mL)
MIC [17]: 16 µM (≈ 25.6 µg/mL)
MIC [29]: 16 µM (≈ 25.6 µg/mL)
MIC [18]: 8 µM (≈ 12.8 µg/mL)
MIC [21]: 16 µM (≈ 25.6 µg/mL)
SMILES: CC[C@H](C)[C@H](NC(=O)[C@H](Cc1c[nH]c2ccccc12)NC(=O)[C@H](CCCCN)NC(=O)[C@H](CC(C)C)NC(=O)[C@@H](NC(=O)[C@H](Cc1c[nH]c2ccccc12)NC(=O)CNC(=O)[C@@H](NC(=O)[C@H](CCCCN)NC(=O)[C@H](Cc1c[nH]c2ccccc12)NC(=O)[C@H](CC(C)C)NC(=O)[C@@H](N)CCCN=C(N)N)[C@@H](C)CC)C(C)C)C(N)=O [RLWKIGWVLKWI]
